This note sets out measurements from patent US10730868B2, “Bicyclic heteroaryl substituted compounds” (BRISTOL-MYERS SQUIBB COMPANY, priority 2016, dated 2020).

Chain of PAR4 (Q96RI0 18-385): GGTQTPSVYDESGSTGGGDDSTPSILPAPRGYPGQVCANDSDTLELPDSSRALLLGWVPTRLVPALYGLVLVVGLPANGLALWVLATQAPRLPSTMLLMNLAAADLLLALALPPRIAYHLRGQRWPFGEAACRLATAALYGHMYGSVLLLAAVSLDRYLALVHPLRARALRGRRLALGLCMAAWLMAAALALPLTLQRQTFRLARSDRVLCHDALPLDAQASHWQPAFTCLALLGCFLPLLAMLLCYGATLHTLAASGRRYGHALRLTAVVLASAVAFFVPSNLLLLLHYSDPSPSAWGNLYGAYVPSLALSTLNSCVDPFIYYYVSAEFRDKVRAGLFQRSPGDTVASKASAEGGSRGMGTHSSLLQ

One experiment addresses PAR4 (Homo sapiens (Human), UniProt Q96RI0). Nature of the experiment: PAR4 FLIPR assay (antagonism of agonist-peptide-induced calcium mobilization). Format: cell-based. The conditions noted are these: H-Ala-Phe(4-F)-Pro-Gly-Trp-Leu-Val-Lys-Asn-Gly-NH2-induced intracellular calcium mobilization, PAR4-expressing HEK293 cells; read-out: PAR4 FLTPR assay (IC50). The source says: The Fluorometric Imaging Plate Reader (FLIPR) assay is an exemplary in vitro assay for measuring the activity of the PAR4 antagonists of the present invention. In this assay, intracellular calcium mobilization is induced in PAR4 expressing cells by a PAR4 agonist and calcium mobilization is monitored.
HEK293 cells stably expressing PAR4 were generated by a standard method of transfection of human PAR4 (F2R23) cDNA expression vector and selected based on PAR4 protein expression or mRNA expression. […] These cells also express endogenous PAR1 and can elicit calcium signal upon stimulation with PAR1 agonist peptide. Therefore, the same cells were also used to determine selectivity against PAR1 and agonist activity for both receptors. Cells from HEK293 PAR4 Clone 1.2A (BMS Arctic ID 383940) were propagated and used for calcium mobilization studies.
FLIPR-based calcium mobilization assay in HEK293 cells was used to measure PAR4 antagonism agonism, and selectivity against PAR1. The activity of the PAR4 antagonists of the present invention were tested in PAR4 expressing cells by monitoring H-Ala-Phe(4-F)-[…]NH2-induced intracellular calcium mobilization. Counter screens for agonist activity and PAR1 antagonist activity were also performed. Briefly, PAR/PAR4-expressing HEK293 cells were grown in DMEM (Life Technology, Grand Island, N.Y.) containing 10% heat-inactivated FBS, 1% Penicillin-Streptomycin, 10 μg/mL blasticidin, and 100 μg/mL Zeocin at 37° C. with 5% CO2. Cells were plated overnight prior to the experiment in a black 384-well Purecoat Amine clear bottom plate (Becton Dickinson Biosciences, San Jose, Calif.) at 10,000 cells/well in 30 μL growth medium and incubated in a humidified chamber at 37° C. with 5% CO2 overnight. Prior to compound addition, the cell medium was replaced with 40 μL of 1× calcium and magnesium-containing Hank's Balanced Saline Solution (HBSS) (with 20 mM HEPES) and 1:1000 diluted fluorescent calcium indicator (Codex Biosolutions, Gaithersburg, Md.). After a 30 minute incubation period at 37° C. and a further 30 minute incubation and equilibration period at room temperature, 20 μL test compound (diluted in 1×HBSS buffer) was added at various concentrations at 0.17% dimethyl sulfoxide (DMSO) final concentration. Changes in fluorescence intensity were measured using a Functional Drug Screening System (FDSS, Hamamatsu, Japan) to determine agonist activities. The cells were then incubated for 30 minutes at room temperature followed by addition of 20 μL of agonist peptide for antagonist activity measurement. […] Compound potency was derived from 11-point concentration-response curves.
As to `COc1cnc2c(-c3nc4cc(F)c(O[C@@H]5CC[C@@H]5OC(=O)Nc5cnc(OC[C@@H](C)O)nc5)cc4s3)cc(C)cc2n1` (stereo in doubt) [Example 62, cis-2-((5-fluoro-2-(2-methoxy-7-methylquinoxalin-5-yl)benzo[d]thiazol-6-yl)oxy)cyclobutyl (2-((R)-2-hydroxypropoxy)pyrimidin-5-yl)carbamate (Homochiral)], the IC50 turned out to be 6.9 nM.

As for `COc1cnc2c(-c3nc4cc(F)c(O[C@@H]5CC[C@@H]5OC(=O)Nc5cnc(OCCO)nc5)cc4s3)cc(C)cc2c1` (stereo in doubt) [Example 74, cis-2-((5-fluoro-2-(3-methoxy-6-methylquinolin-8-yl)benzo[d]thiazol-6-yl)oxy)cyclo butyl (2-(2-hydroxyethoxy)pyrimidin-5-yl)carbamate (Homochiral)], the IC50 was determined as 8.9 nM.

`COc1cnc2c(-c3nc4cc(F)c(O[C@@H]5CC(F)(F)C[C@@H]5OC(=O)Nc5cnc(C)nc5)cc4s3)cc(C)cc2n1` (stereo in doubt) [Example 99, (cis)-4,4-difluoro-2-((5-fluoro-2-(2-methoxy-7-methylquinoxalin-5-yl)benzo[d]thiazol-6-yl)oxy)cyclopentyl (2-methylpyrimidin-5-yl)carbamate (Homochiral)]: the IC50 was found to be 32 nM.

Consider `COc1cnc2c(-c3nc4cc(F)c(O[C@H]5CC(F)(F)CC[C@H]5OC(=O)Nc5cnc(OCCO)nc5)cc4s3)cc(C)cc2n1` [Example 1], for which the IC50 was 1.6 nM.

The experiment is the same for the next values; noted with them: H-Ala-Phe(4-F)-[…]NH2-induced intracellular calcium mobilization, PAR4-expressing HEK293 cells; read-out: PAR4 FLTPR assay (IC50).
Consider `COc1ccc(NC(=O)O[C@H]2CCOC[C@H]2Oc2cc3sc(-c4cc(C)cc5nc(OC)cnc45)nc3cc2F)cn1` (racemic) [Example 88, rac-cis-3-((5-fluoro-2-(2-methoxy-7-methylquinoxalin-5-yl)benzoldithiazol-6-yl)oxy)tetrahydro-2H-pyran-4-yl (6-methoxypyridin-3-yl)carbamate], for which the concentration for half-maximal inhibition (IC50) was found to be 21 nM.

For the molecule `COc1ccc(NC(=O)O[C@H]2CCOC[C@H]2Oc2cc3sc(-c4cc(C#N)cc5nc(OC)cnc45)nc3cc2F)cn1` (racemic) [Example 89, rac-cis-3-((2-(7-cyano-2-methoxyquinoxalin-5-yl)-5-fluorobenzo[d]thiazol-6-yl)oxy)tetrahydro-2H-pyran-4-yl (6-methoxypyridin-3-yl)carbamate], the IC50 came to 3.8 nM.

`COc1cnc2c(-c3nc4cc(F)c(O[C@@H]5CN(C(=O)OCc6ccccc6)C[C@H]5O)cc4s3)cc(C)cc2n1` (racemic) [Example 90, rac-trans-benzyl 3-((5-fluoro-2-(2-methoxy-7-methylquinoxalin-5-yl)benzo[d]thiazol-6-yl)oxy)-4-hydr oxopyrrolidine-1-carboxylate]: the IC50 is 330 nM.

For `COc1cnc2c(-c3nc4cc(F)c(O[C@@H]5CN(C(=O)OC(C)(C)C)CC[C@@H]5OC(=O)Nc5cnc(C)nc5)cc4s3)cc(C)cc2n1` (racemic) [Example 91, rac-cis-tert-butyl 3-((5-fluoro-2-(2-methoxy-7-methylquinoxalin-5-yl)benzo[d]thiazol-6-yl)oxy)-4-(((2-methylpyrimidin-5-yl)carbamoyl)oxy)piperidine-1-carboxylate], the IC50 worked out at 3.8 nM.

Regarding `COc1ccc(NC(=O)O[C@H]2CCN(C(=O)OC(C)(C)C)C[C@H]2Oc2cc3sc(-c4cc(C)cc5nc(OC)cnc45)nc3cc2F)cn1` (racemic) [Example 92, rac-cis-tert-butyl 3-((5-fluoro-2-(2-methoxy-7-methylquinoxalin-5-yl)benzo[d]thiazol-6-yl)oxy)-4-(((6-methoxypyridin-3-yl)carbamoyl)oxy)piperidine-1-carboxylate], the half-maximal inhibitory concentration (IC50) worked out at 12 nM.

Regarding `COc1cnc2c(-c3nc4cc(F)c(O[C@@H]5CN(C(C)=O)CC[C@@H]5OC(=O)Nc5cnc(C)nc5)cc4s3)cc(C)cc2n1` (racemic) [Example 94, rac-cis-1-acetyl-3-((5-fluoro-2-(2-methoxy-7-methylquinoxalin-5-yl)benzo[d]thiazol-6-yl)oxy)piperidin-4-yl (2-methylpyrimidin-5-yl)carbamate], the IC50 was 2300 nM.

`COc1cnc2c(-c3nc4cc(F)c(O[C@@H]5CN(S(C)(=O)=O)CC[C@@H]5OC(=O)Nc5cnc(C)nc5)cc4s3)cc(C)cc2n1` (racemic) [Example 95, rac-cis-3-((5-fluoro-2-(2-methoxy-7-methylquinoxalin-5-yl)benzo[d]thiazol-6-yl)oxy)-1-(methylsulfonyl)piperidin-4-yl (2-methylpyrimidin-5-yl)carbamate]: the IC50 is 72 nM.

Turning to `COc1cnc2c(-c3nc4cc(F)c(O[C@@H]5CN(C(=O)C(F)(F)F)CC[C@@H]5OC(=O)Nc5cnc(C)nc5)cc4s3)cc(C)cc2n1` (racemic) [Example 96, rac-cis-3-((5-fluoro-2-(2-methoxy-7-methylquinoxalin-5-yl)benzo[d]thiazol-6-yl)oxy)-1-(2,2,2-trifluoroacetyl)piperidin-4-yl (2-methylpyrimidin-5-yl)carbamate], the IC50 worked out at 44 nM.

Consider `COc1cnc2c(-c3nc4cc(F)c(O[C@@H]5CC(F)(F)C[C@@H]5OC(=O)Nc5cnc(C)nc5)cc4s3)cc(C)cc2n1` (racemic) [Example 97, rac-cis-4,4-difluoro-2-((5-fluoro-2-(2-methoxy-7-methylquinoxalin-5-yl)benzo[d]thiazol-6-yl)oxy)cyclopentyl (2-methylpyrimidin-5-yl)carbamate)], for which the IC50 turned out to be 9.2 nM.

As to `COc1cnc2c(-c3nc4cc(F)c(O[C@@H]5CC(F)(F)C[C@@H]5OC(=O)Nc5cnc(C)nc5)cc4s3)cc(Cl)cc2c1` (racemic) [Example 98, rac-cis-2-((2-(6-chloro-3-methoxyquinolin-8-yl)-5-fluorobenzo[d]thiazol-6-yl)oxy)-4,4-difluorocyclopentyl (2-methylpyrimidin-5-yl)carbamate], the IC50 turned out to be 14 nM.

Consider `COc1cnc2c(-c3nc4cc(F)c(O[C@@H]5CCC(C)(C)[C@@H]5O)cc4s3)cc(C)cc2n1` (racemic) [Example 103, rac-cis-5-((5-fluoro-2-(2-methoxy-7-methyl)quinoxalin-5-yl)benzo[d]thiazol-6-yl)oxy)-2,2-dimethylcyclopentanol], for which the IC50 was found to be 20 nM.

For the molecule `COc1cnc2c(-c3nc4cc(F)c(O[C@@H]5CCC(C)(C)[C@@H]5OC(=O)Nc5cnc(C)nc5)cc4s3)cc(C)cc2n1` (racemic) [Example 104, rac-cis-5-((5-fluoro-2-(2-methoxy-7-methylquinoxalin-5-yl)benzo[d]thiazol-6-yl)oxy)-2,2-dimethylcyclopentyl (2-methylpyrimidin-5-yl)carbamate], the IC50 was 2.4 nM.

In the case of `COc1cnc2c(-c3nc4cc(F)c(O[C@H]5CCCC[C@H]5OC(=O)Nc5cccnc5)cc4s3)cc(C)cc2n1` (single isomer, unassigned; enantiomer 1) [Example 58, cis-2-((5-fluoro-2-(2-methoxy-7-methylquinoxalin-5-yl)benzo[d]thiazol-6-yl)oxy)cyclohexyl pyridin-3-ylcarbamate (Enantiomer 1)], the IC50 is 1.4 nM.

On to `COc1cnc2c(-c3nc4cc(F)c(O[C@H]5CC(C)(C)C[C@H]5OC(=O)Nc5cnc(C)nc5)cc4s3)cc(C)cc2n1` (single isomer, unassigned; enantiomer 1) [Example 84, (cis)-2-((5-fluoro-2-(2-methoxy-7-methylquinoxalin-5-yl)benzo[d]thiazol-6-yl)oxy)-4,4-dimethylcyclopentyl (2-methylpyrimidin-5-yl)carbamate Enantiomer 1], for which the IC50 came to 5.4 nM.

Take `COc1cnc2c(-c3nc4cc(F)c(O[C@@H]5CCCC[C@@H]5OC(=O)Nc5cccnc5)cc4s3)cc(C)cc2n1` (single isomer, unassigned; enantiomer 2) [Example 59, cis-2-((5-fluoro-2-(2-methoxy-7-methylquinoxalin-5-yl)benzo[d]thiazol-6-yl)oxy)cyclohexyl pyridin-3-ylcarbamate (Enantiomer 2)]: the IC50 was 77 nM.

For the molecule `COc1cnc2c(-c3nc4cc(F)c(O[C@@H]5CC(C)(C)C[C@@H]5OC(=O)Nc5cnc(C)nc5)cc4s3)cc(C)cc2n1` (single isomer, unassigned; enantiomer 2) [Example 85, (cis)-2-((5-fluoro-2-(2-methoxy-7-methylquinoxalin-5-yl)benzo[d]thiazol-6-yl)oxy)-4,4-dimethylcyclopentyl (2-methylpyrimidin-5-yl)carbamate Enantiomer 2], the IC50 was found to be 41 nM.

Broadly, the IC50 is the concentration that gives 50% inhibition.
